Results taken from patent US20060252820A1, “Composition for oral administration containing alkylene dioxybenzene derivative” (priority 2003, published 2006).

Assay: Conventional preparation of MKC-242 administered to a human
Assay type: in vivo
Conditions: conventional preparation (tablet) administered to a human

SMILES: Cl.c1ccc2c(c1)OC[C@H](CNCCCOc1ccc3c(c1)OCO3)O2 [MKC-242, 5-[3-[[(2S)-1,4-benzodioxan-2-ylmethyl]amino]propoxy]-1,3-benzodioxole hydrochloride]
- symptoms recognized (depending on drug concentration in plasma, all slight): nausea, dizziness, orthostatic syncope
- half-life (plasma, oral, read-out: half-life T1/2): 2 to 5 h
